Experimental data: ChEMBL document CHEMBL1148889, “Biaryl cannabinoid mimetics--synthesis and structure-activity relationship” (Bioorg Med Chem Lett, 2007)
“And” between values parts separate entries of the source, which are not always exact repeats. Identical values can stand only once.

Tests used:
Cannabinoid receptor 1 = Cannabinoid receptor 1 (Homo sapiens, UniProt P21554); assay: Displacement of [3H]CP-55940 from cloned human CB1 receptor
Cannabinoid receptor 2 = Cannabinoid receptor 2 (Homo sapiens, UniProt P34972); assay: Displacement of [3H]CP-55940 from cloned human CB2 receptor
[1] = target: Cannabinoid receptor (Homo sapiens) (UniProt P34972+P21554); assay: Selectivity for human CB2 receptor over human CB1 receptor; assay type: protein assay
Cannabinoid receptor (Homo sapiens), sequence (P21554 whole entry, looked up): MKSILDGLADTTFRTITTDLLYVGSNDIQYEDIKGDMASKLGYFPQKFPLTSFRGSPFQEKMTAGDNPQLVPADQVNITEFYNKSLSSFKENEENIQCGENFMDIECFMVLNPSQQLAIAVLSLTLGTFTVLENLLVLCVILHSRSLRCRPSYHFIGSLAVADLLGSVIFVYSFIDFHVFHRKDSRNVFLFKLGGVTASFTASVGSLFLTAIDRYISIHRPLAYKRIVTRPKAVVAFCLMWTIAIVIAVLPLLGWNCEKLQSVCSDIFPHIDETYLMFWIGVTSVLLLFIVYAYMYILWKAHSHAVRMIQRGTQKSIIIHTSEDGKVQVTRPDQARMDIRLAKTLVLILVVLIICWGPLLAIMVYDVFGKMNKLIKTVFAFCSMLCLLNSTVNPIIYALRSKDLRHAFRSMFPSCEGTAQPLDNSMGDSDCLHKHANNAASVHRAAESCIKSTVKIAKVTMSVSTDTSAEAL
Cannabinoid receptor (Homo sapiens), sequence (P34972 whole entry, looked up): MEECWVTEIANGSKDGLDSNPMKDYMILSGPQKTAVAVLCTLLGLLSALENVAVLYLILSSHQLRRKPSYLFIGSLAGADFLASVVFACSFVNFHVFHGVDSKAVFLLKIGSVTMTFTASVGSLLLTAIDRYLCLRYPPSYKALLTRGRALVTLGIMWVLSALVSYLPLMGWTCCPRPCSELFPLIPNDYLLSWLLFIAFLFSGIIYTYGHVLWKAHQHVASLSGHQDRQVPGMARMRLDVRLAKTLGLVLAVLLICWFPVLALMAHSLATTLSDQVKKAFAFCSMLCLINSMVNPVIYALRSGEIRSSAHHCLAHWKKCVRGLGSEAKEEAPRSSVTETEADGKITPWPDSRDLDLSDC

Cannabinoid receptor 1, sequence (P21554 whole entry): as the sequence (P21554 whole entry, looked up) above
Cannabinoid receptor 2, sequence (P34972 whole entry): as the sequence (P34972 whole entry, looked up) above

Row | SMILES | Ki (Cannabinoid receptor 1) [nM] | Ki (Cannabinoid receptor 2) [nM] | Ratio Ki [1]
1 | CCCCCCC(C)(C)c1ccc(-c2cc(C)ccc2C)c(O)c1 | 4.6 | 6.6 | 0.7
2 | CCCCCCC(C)(C)c1ccc(-c2cccc(C#N)c2)c(O)c1 | 27 | 45 | 0.6
3 | Cc1cc(C)cc(-c2ccc(C(C)(C)CCCO)cc2O)c1 | 1100 | 56 | 20
4 | COC(=O)C(C)(C)c1ccc(-c2cc(C)cc(C)c2)c(O)c1 | 160 | 16 | 10
5 | COC(=O)CCC(C)(C)c1ccc(-c2cc(C)cc(C)c2)c(O)c1 | 120 | 5.6 | 20
6 | CCCCCCC(C)(C)c1ccc(-c2ccccc2OC)c(O)c1 | 1.7 | 1 | 2
7 | Cc1cc(C)cc(-c2ccc(C(C)(C)CO)cc2O)c1 | 2200 | 600 | 4
8 | CCCCCCC1(c2ccc(-c3cc(C)cc(C)c3)c(O)c2)CC1 | 13 | 55 | 0.2
9 | COC(=O)CCCCC(C)(C)c1ccc(-c2cc(C)cc(C)c2)c(O)c1 | 24 | 14 | 2
10 | CCCCCCC(C)(C)c1ccc(-c2cc(C)cc(C)c2)c(COC(=O)CN2CCOCC2)c1 | 370 | 0.81 | 500
11 | CCCCCCC(C)(C)c1ccc(-c2cc(C)cc(C)c2)c(CN)c1 | 1500 | 380 | 4
12 | CCCCCCC1(c2ccc(-c3cc(C)cc(C)c3)c(O)c2)CCCC1 | 2.9 | 5.5 | 0.5
13 | CCCCCCC(C)(C)c1ccc(-c2cccc(N)c2)c(O)c1 | 15 | 44 | 0.3
14 | Cc1cc(C)cc(-c2ccc(C(C)(C)CCCCCO)cc2O)c1 | 39 | 3.6 | 10
15 | CNC(=O)CCCCC(C)(C)c1ccc(-c2cc(C)cc(C)c2)c(O)c1 | 96 | 39 | 2
16 | CCCCCCC(C)(C)c1ccc(-c2cccnc2)c(O)c1 | 23 | 20 | 1
17 | CCCCCCC(C)(C)c1ccc(-c2ccccc2N)c(O)c1 | 5.2 | 17 | 0.3
18 | CCCCCCC(C)(C)c1ccc(-c2ccc(N)cc2)c(O)c1 | 320 | 1000 | 0.3
19 | CNC(=O)C(C)(C)c1ccc(-c2cc(C)cc(C)c2)c(O)c1 | > 1000 | > 1000 | 
20 | CCCCCCC(C)(C)c1ccc(-c2cccc(C(=O)O)c2)c(O)c1 | > 1000 | > 1000 | 
21 | CCCCCCC(C)(C)c1ccc(-c2cc(C)cc(C)c2)c(C(=O)OC)c1 |  |  | 2 and 1

Row | SMILES | Ki (Cannabinoid receptor 1) [nM] | Ki (Cannabinoid receptor 2) [nM] | Ratio Ki [1]
22 | CCCCCCC(C)(C)c1ccc(-c2cc(C)cc(C)c2)c(C(N)=O)c1 | 370 | 320 | 1
23 | Cc1cc(C)cc(-c2ccc(C(C)(C)C(=O)O)cc2O)c1 | > 1000 | > 1000 | 
24 | CCCCCCC(C)(C)c1ccc(-c2cc(C)cc(C)c2)c(CO)c1 | 360 | 480 | 0.8
25 | CCCCCCC(C)(C)c1ccc(-c2cc(C)cc(C)c2)c(C(=O)O)c1 | > 1000 | > 1000 | 
26 | CCCCCCC(C)(C)c1ccc(-c2ccc(OC)c(OC)c2)c(O)c1 | 1400 | 1700 | 0.8
27 | CCCCCCC(C)(C)c1ccc(-c2cc(C)cc(C)c2)c(N)c1 | 80 | 51 | 2
28 | CCCCCCC(C)(C)c1ccc(-c2ccc(C#N)cc2)c(O)c1 | > 1000 | > 1000 | 
29 | CCCCCCC(C)(C)c1ccc(-c2cc(C)cc(C)c2)c(CN2CCOCC2)c1 | 3900 | 660 | 6
30 | CCCCCCC(C)(C)c1ccc(-c2cccc(OC)c2OC)c(O)c1 | 34 | 7.8 | 4
31 | CCCCCCC(C)(C)c1ccc(-c2cc(C)cc(C)c2)c(O)c1 | 2.7 | 2.3 | 1
32 | Cc1cc(C)cc(-c2ccc(C(C)(C)CCCCC(=O)O)cc2O)c1 | > 1000 | > 1000 | 
33 | CCCCCCC(C)(C)c1ccc(-c2cc(C)cc(C)c2)c(OC)c1 | 320 | 34 | 9
34 | CCCCCCC(C)(C)c1ccc(-c2cccc(C)c2C)c(O)c1 | 49 | 20 | 2
35 | CCCCCCC(C)(C)c1ccc(-c2cc(C)cc(C)c2)cc1 | > 30000 |  | > 10
36 | CCCCCCC(C)(C)c1ccc(-c2cccc(OC)c2)c(O)c1 | 91 | 580 | 0.2
37 | CCCCCCC(C)(C)c1ccc(-c2ccc(C)c(C)c2)c(O)c1 | 600 | 830 | 0.7
38 | CCCCCCC(C)(C)c1ccc(-c2cc(C)cc(C)c2)c(C(=O)NC(C)C)c1 | > 1000 | > 1000 | 
39 | CNC(=O)CCC(C)(C)c1ccc(-c2cc(C)cc(C)c2)c(O)c1 | 840 | 140 | 6
40 | CCCCCCC(C)(C)c1ccc(-c2c(C)cccc2C)c(O)c1 | 1.7 | 18 | 0.1
41 | CCCCCCC1(c2ccc(-c3cc(C)cc(C)c3)c(O)c2)CCCCC1 | 1.8 | 1.7 | 1
